# Source: US5859067A, “Use of natural products and related synthetic compounds for the treatment of cardiovascular disease” (priority 1993, dated 1999)
# pIC50: −log10 of the molar value. Where “and” joins values, the source holds several entries; their conditions need not be identical. Equal entries are not always repeated.
# How the values were obtained:
# [1] = system: brine shrimp (Artemia salina Leach); assay: Brine shrimp toxicity bioassay; assay type: in vivo; settings: 24 hours
# [2] = system: ^45 Ca^2+ efflux from rat thoracic aorta smooth muscle cells; assay: ^45 Ca^2+ efflux from cultured vascular smooth muscle cells; assay type: cell-based
# Description: ^45 Ca efflux from cultured vascular smooth muscle cells consists of two major mechanisms; one is dependent on extracellular sodium, mediated by the Na^+ -Ca^2+ exchanger (Na^+ - dependent Ca^2+ efflux), and the other is independent of extracellular sodium but is mediated by the Ca^2+ pump (Na^+ - independent Ca^2+ efflux). The effect of striatol on the efflux of calcium (^45 Ca^2+) from rat thoracic aorta smooth muscle cells in culture was studied. ^45 Ca^2+ efflux is a measure of plasma membrane Ca^2+ -ATPase (plus Na^+ : Ca^2+ exchange) in intact (whole) cells.
# [3] = target: T1, human erythrocyte plasma membrane Ca^2+ -ATPase (Homo sapiens, UniProt P23634); assay: Ca^2+ -ATPase assay (erythrocyte membranes; Table 1); assay type: biochemical
# T1 construct: Calmodulin-depleted erythrocyte membranes were prepared by continuous filtration through a hollow fibre; tissue New South Wales Red Cross Transfusion Service, Sydney; host or cells: human packed red blood cells (calmodulin-depleted erythrocyte membranes)
# [4] = system: purified erythrocyte Ca^2+ -ATPase; assay: Inhibition of purified erythrocyte Ca^2+ -ATPase; assay type: biochemical; settings: purified enzyme
# T1 sequence (P23634 1-1205 isoform P23634-6): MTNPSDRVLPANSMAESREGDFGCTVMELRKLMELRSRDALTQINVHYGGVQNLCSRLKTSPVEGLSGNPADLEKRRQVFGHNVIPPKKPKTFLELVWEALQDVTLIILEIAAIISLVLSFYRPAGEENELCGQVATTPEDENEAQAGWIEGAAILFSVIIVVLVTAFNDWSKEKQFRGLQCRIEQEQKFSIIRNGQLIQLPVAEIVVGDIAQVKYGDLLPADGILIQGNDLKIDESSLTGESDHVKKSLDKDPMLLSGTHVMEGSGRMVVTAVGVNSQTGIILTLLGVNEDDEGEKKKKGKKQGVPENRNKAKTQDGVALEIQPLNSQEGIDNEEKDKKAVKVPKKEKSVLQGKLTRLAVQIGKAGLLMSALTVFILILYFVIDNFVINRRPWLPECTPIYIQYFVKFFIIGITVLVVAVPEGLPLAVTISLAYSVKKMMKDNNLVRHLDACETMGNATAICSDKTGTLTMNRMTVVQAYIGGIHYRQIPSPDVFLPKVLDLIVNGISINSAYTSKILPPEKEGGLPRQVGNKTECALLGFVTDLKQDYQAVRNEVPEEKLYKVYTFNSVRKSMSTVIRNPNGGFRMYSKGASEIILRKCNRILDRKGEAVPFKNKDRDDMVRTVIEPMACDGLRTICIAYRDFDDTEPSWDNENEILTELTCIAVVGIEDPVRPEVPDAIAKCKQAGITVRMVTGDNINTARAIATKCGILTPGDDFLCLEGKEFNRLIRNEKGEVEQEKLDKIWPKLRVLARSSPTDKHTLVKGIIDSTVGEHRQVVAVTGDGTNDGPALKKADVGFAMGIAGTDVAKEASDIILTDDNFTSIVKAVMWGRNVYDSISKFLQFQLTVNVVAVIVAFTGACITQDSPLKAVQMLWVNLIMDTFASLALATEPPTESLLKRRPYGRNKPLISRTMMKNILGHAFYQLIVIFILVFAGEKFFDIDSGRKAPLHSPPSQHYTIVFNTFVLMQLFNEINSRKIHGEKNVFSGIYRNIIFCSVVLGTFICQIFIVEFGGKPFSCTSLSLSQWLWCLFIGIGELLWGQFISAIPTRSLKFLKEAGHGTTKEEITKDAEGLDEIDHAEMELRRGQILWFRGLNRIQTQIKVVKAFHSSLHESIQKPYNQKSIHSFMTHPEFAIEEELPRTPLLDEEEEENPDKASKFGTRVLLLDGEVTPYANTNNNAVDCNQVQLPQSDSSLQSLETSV
# T1 sequence (P35613 140-385 partner limits assumed): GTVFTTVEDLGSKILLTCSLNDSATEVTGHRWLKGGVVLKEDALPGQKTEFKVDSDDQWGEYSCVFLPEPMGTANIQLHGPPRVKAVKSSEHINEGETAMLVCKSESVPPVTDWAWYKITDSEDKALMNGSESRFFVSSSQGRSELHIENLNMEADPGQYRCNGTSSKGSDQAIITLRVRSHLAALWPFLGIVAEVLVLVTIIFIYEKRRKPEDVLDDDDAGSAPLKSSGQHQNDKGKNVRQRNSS
compound,measurement,setting,value
"Cc1c(O)cc(CCCCCCCCCCCCCCc2cc(O)c(C)c(O)c2)cc1O [striatol, 1,14-bis(3,5-dihydroxy-4-methylphenyl)tetradecane]",toxicity to brine shrimp (in words),[1],relatively low toxicity
same,LC50,"[1]; Artemia salina, read-out: LC50 brine shrimp",11 µM and 4.9 µg/mL
same,inhibition of ^45 Ca^2+ efflux,"[2]; 20 μM, 5 min",partial inhibition
same,inhibition of ^45 Ca^2+ efflux,"[2]; 20 μM, 10 min",partial inhibition
same,inhibition of ^45 Ca^2+ efflux,"[2]; 50 μM, 30 min",complete inhibition
same,inhibition at 100 µM,"[3]; at 100 μM, read-out: INHIBITION OF Ca^2+ -ATPase PERCENT (%)",98%
same,pIC50,[3]; read-out: INHIBITION OF Ca^2+ -ATPase IC50,4.80
same,inhibitory activity with purified erythrocyte Ca^2+ -ATPase,[4],confirmed
